Results on 33 compounds are retold here after ChEMBL document CHEMBL4145528, “Novel dissymmetric 3,5-bis(arylidene)-4-piperidones as potential antitumor agents with biological evaluation in vitro and in vivo” (Eur J Med Chem, 2018).

SMILES strings stand for the structures. Activity calls are given as the source filed them. No cut-off for these calls is given here.

The test system of one assay is K562. Nature of the assay: Cytotoxicity against human K562 cells assessed as reduction in cell viability after 24 hrs by MTT assay. It is filed as functional, cell-based. As to conditions: for IC50: K562, 24 h.
Assay [1] deals with HepG2. Nature of the assay: Cytotoxicity against human HepG2 cells assessed as reduction in cell viability after 24 hrs by MTT assay. It is filed as functional, cell-based. The following applies: for IC50: HepG2, 24 h. For orientation: Formazan colour is commonly taken as a measure of viable cells.
For the next assay, the system named is L02. As to the kind of experiment: Cytotoxicity against human LO2 cells assessed as reduction in cell viability after 24 hrs by MTT assay. It is filed as cell-based. As to conditions: L02, 24 h.
The next assay concerns THP-1. Nature of the assay: Cytotoxicity against human THP1 cells assessed as reduction in cell viability after 24 hrs by MTT assay. It is filed as functional, cell-based. As to conditions: for IC50: THP-1, 24 h.
For another assay, the system named is HeLa. As to the kind of experiment: Cytotoxicity against human HeLa cells assessed as reduction in cell viability after 24 hrs by MTT assay. It is filed as functional, cell-based.
Assay [2] has as its system HepG2. As to the kind of experiment: Upregulation of Bax protein expression in human HepG2 cells at 50 uM after 3 hrs by western blot analysis. It is filed as functional, cell-based. (In general: Immunoblotting shows a protein as a band on a membrane.)
The test system of assay [3] is HepG2. Nature of the assay: Downregulation of Bcl2 protein expression in human HepG2 cells at 50 uM after 3 hrs by western blot analysis. It is filed as functional, cell-based.

Usually IC50 stands for the concentration that inhibits the measured activity by half. `COc1cc(/C=C2\CN(C)C/C(=C\c3ccc(Cl)c(Cl)c3)C2=O)cc(OC)c1`: the IC50 came to 9.49 µM in the assay on K562; 3.84 µM in the assay with HepG2 [1]; 10.6 µM in the assay on L02; 3.26 µM in the assay on THP-1; 6.9 µM in the assay on HeLa.
On the same counts, the results for `COc1cc(/C=C2\CN(C)C/C(=C\c3ccc(C#N)cc3)C2=O)cc(OC)c1` are 4.65 µM, 0.88 µM, 14 µM, 0.94 µM and 3.42 µM.
Turning to `COc1cc(/C=C2\CN(C)C/C(=C\c3ccc(C#N)cc3)C2=O)cc(OC)c1OC`, the Activity entry in the assay with K562, in the assay with HepG2 [1], with THP-1 and in the assay on HeLa was “Dose-dependent effect” each time. Further, the IC50 in the assay on K562 stood at 4.29 µM; with HepG2 [1] it was 1.14 µM; in the assay on L02, 18.6 µM; in the assay on THP-1, 0.82 µM; with HeLa, 3.42 µM. In addition, the outcome in the assay on HepG2 [2] and with HepG2 [3] was Active.
`CN1C/C(=C\c2ccc(C(C)(C)C)cc2)C(=O)/C(=C/c2ccccc2F)C1`: the IC50 turned out to be 18.2 µM in the assay with K562; 9.12 µM in the assay with HepG2 [1]; 25.8 µM in the assay on L02; 13.4 µM with THP-1; 15.5 µM with HeLa.
Consider `COc1cc(/C=C/C(=O)CC(=O)/C=C/c2ccc(O)c(OC)c2)ccc1O` [CURCUMIN], for which the IC50 in the assay with K562 was 23.1 µM; in the assay on HepG2 [1], 13.8 µM; with L02, 25.7 µM; in the assay on THP-1, 22.5 µM; in the assay on HeLa it was 31.9 µM.
The like results for `CN1C/C(=C\c2ccc(F)cc2)C(=O)/C(=C/c2cccc([N+](=O)[O-])c2)C1` were, in that order, 11.2 µM, 9.34 µM, 17.6 µM, 7.16 µM and 6.25 µM.
On the same counts, the results for `COc1cc(/C=C2\CN(C)C/C(=C\c3cccc([N+](=O)[O-])c3)C2=O)cc(OC)c1OC` are 4.2 µM, 1.89 µM, 13.6 µM, 0.89 µM and 5.54 µM.
The like results for `CN1C/C(=C\c2ccc(Cl)cc2)C(=O)/C(=C/c2ccc(C#N)cc2)C1` were, in that order, 13.3 µM, 5.95 µM, 16.2 µM, 3.18 µM and 11.2 µM.
`COc1cc(/C=C2\CN(C)C/C(=C\c3ccc(Cl)cc3)C2=O)cc(OC)c1`: the IC50 in the assay on K562 amounted to 13.3 µM; with HepG2 [1], 5.95 µM; in the assay on L02, 18.9 µM; with THP-1, 5.86 µM; in the assay on HeLa, 11.2 µM.
On the same counts, the results for `COc1cc(/C=C2\CN(C)C/C(=C\c3ccc(Br)cc3)C2=O)cc(OC)c1` are 7.42 µM, 4.84 µM, 21.3 µM, 4.27 µM and 5.9 µM.
On the same counts, the results for `CN1C/C(=C\c2cccc(Br)c2)C(=O)/C(=C/c2cccc([N+](=O)[O-])c2)C1` are 12.2 µM, 4.89 µM, 8.07 µM, 4.03 µM and 11.1 µM.
The like results for `COc1cc(/C=C2\CN(C)C/C(=C\c3ccc(Cl)cc3Cl)C2=O)cc(OC)c1OC` were, in that order, over 20 µM, 8.8 µM, 13.4 µM, 5.02 µM and over 20 µM.
Regarding `CN1C/C(=C\c2ccc(Br)cc2)C(=O)/C(=C/c2cccc([N+](=O)[O-])c2)C1`, the IC50 is over 20 µM with K562; 8.8 µM in the assay on HepG2 [1]; 9.85 µM in the assay on L02; 7.69 µM in the assay on THP-1; 11.9 µM with HeLa.
The like results for `COc1ccc(/C=C2\CN(C)C/C(=C\c3ccccc3F)C2=O)cc1` were, in that order, 18.4 µM, 12.2 µM, 22.1 µM, 15.4 µM and 23.4 µM.
On the same counts, the results for `CN1C/C(=C\c2cccc([N+](=O)[O-])c2)C(=O)/C(=C/c2ccc(Cl)cc2Cl)C1` are 12.4 µM, 4.8 µM, 14 µM, 3.56 µM and 8.9 µM.
The like results for `CN1C/C(=C\c2ccc(C#N)cc2)C(=O)/C(=C/c2ccc(Cl)cc2Cl)C1` were, in that order, 11.9 µM, 6.25 µM, 10.8 µM, 1.91 µM and 7.76 µM.
For the compound `CN1C/C(=C\c2ccc(F)cc2)C(=O)/C(=C/c2ccc(C#N)cc2)C1`, the IC50 is 11.2 µM with K562; 6.14 µM in the assay with HepG2 [1]; 20.9 µM in the assay with L02; 5.03 µM in the assay on THP-1; 10.2 µM in the assay with HeLa.
The like results for `CN1C/C(=C\c2ccc(C#N)cc2)C(=O)/C(=C/c2ccccc2F)C1` were, in that order, 2.67 µM, 0.59 µM, 11 µM, 0.81 µM and 1.34 µM.
On the same counts, the results for `CN1C/C(=C\c2ccc(C(F)(F)F)cc2)C(=O)/C(=C/c2ccccc2F)C1` are 6.34 µM, 4.14 µM, 18.6 µM, 5.93 µM and 6.56 µM.
On the same counts, the results for `CN1C/C(=C\c2ccc(Cl)cc2)C(=O)/C(=C/c2cccc([N+](=O)[O-])c2)C1` are over 20 µM, 8.21 µM, over 20 µM, 7.87 µM and over 20 µM.
Consider `CN1C/C(=C\c2cccc([N+](=O)[O-])c2)C(=O)/C(=C/c2ccc(Cl)c(Cl)c2)C1`, for which the IC50 came out at 15.5 µM in the assay with K562; 5.96 µM in the assay with HepG2 [1]; 14.8 µM in the assay with L02; 5.02 µM in the assay with THP-1; 9.12 µM in the assay on HeLa.
Take `COc1cc(/C=C2\CN(C)C/C(=C\c3ccc(F)cc3)C2=O)cc(OC)c1`: the IC50 in the assay with K562 came to 11.2 µM; in the assay with HepG2 [1] it was 6.14 µM; with L02, 21.9 µM; in the assay with THP-1 it was 5.04 µM; in the assay with HeLa, 10.2 µM.
On the same counts, the results for `COc1cc(/C=C2\CN(C)C/C(=C\c3ccc(Cl)cc3Cl)C2=O)cc(OC)c1` are 11.9 µM, 6.25 µM, 18.8 µM, 6.07 µM and 7.76 µM.
The like results for `COc1cc(/C=C2\CN(C)C/C(=C\c3ccc(Cl)cc3)C2=O)cc(OC)c1OC` were, in that order, over 20 µM, 8.25 µM, 14 µM, 7.2 µM and over 20 µM.
The like results for `COc1ccc(/C=C2\CN(C)C/C(=C\c3ccccc3F)C2=O)cc1OC` were, in that order, 18 µM, 8.76 µM, 10.5 µM, 11.2 µM and 14.3 µM.
In the case of `COc1cc(/C=C2\CN(C)C/C(=C\c3ccc(Br)cc3)C2=O)cc(OC)c1OC`, the IC50 in the assay on K562 worked out at 12.4 µM; in the assay on HepG2 [1], 6.8 µM; in the assay with L02, 15.4 µM; in the assay with THP-1 it was 5.33 µM; with HeLa, 11.9 µM.
On to `COc1cc(/C=C2\CN(C)C/C(=C\c3ccccc3F)C2=O)cc(OC)c1`, for which the IC50 turned out to be 6.32 µM with K562; 1.24 µM in the assay with HepG2 [1]; 11.9 µM in the assay with L02; 1.17 µM in the assay with THP-1; 5.45 µM with HeLa.
The like results for `CN1C/C(=C\c2cccc([N+](=O)[O-])c2)C(=O)/C(=C/c2ccccc2F)C1` were, in that order, 3.89 µM, 1.08 µM, 13.5 µM, 1.01 µM and 2.34 µM.
As for `COc1cc(/C=C2\CN(C)C/C(=C\c3cccc([N+](=O)[O-])c3)C2=O)cc(OC)c1`, the IC50 in the assay with K562 came out at 4.42 µM; in the assay on HepG2 [1], 1.84 µM; in the assay with L02, 10.8 µM; in the assay on THP-1, 1.77 µM; in the assay with HeLa, 2.56 µM.
The like results for `CN1C/C(=C\c2ccc(Br)cc2)C(=O)/C(=C/c2ccc(C#N)cc2)C1` were, in that order, 7.42 µM, 4.84 µM, 10.5 µM, 4.4 µM and 5.9 µM.
As to `CN1C/C(=C\c2ccc(C#N)cc2)C(=O)/C(=C/c2ccc(C(F)(F)F)cc2)C1`, the IC50 was 4.01 µM with K562; 0.98 µM with HepG2 [1]; 17.2 µM with L02; 1.43 µM with THP-1; 3.21 µM in the assay with HeLa.
On the same counts, the results for `COc1cc(/C=C2\CN(C)C/C(=C\c3ccc(Cl)c(Cl)c3)C2=O)cc(OC)c1OC` are 16.1 µM, 6.96 µM, 18.4 µM, 5.33 µM and 13.5 µM.
Regarding `COc1cc(/C=C2\CN(C)C/C(=C\c3ccc(F)cc3)C2=O)cc(OC)c1OC`, the IC50 was determined as 10.2 µM with K562; 7.34 µM in the assay on HepG2 [1]; 10.7 µM with L02; 6.13 µM in the assay with THP-1; 7.25 µM in the assay with HeLa.
